From publication PMC9386326, “Dysregulated glucuronic acid metabolism exacerbates hepatocellular carcinoma progression and metastasis through the TGFβ signalling pathway” (Clinical and Translational Medicine, 2022)

Biological target: T1, PTBP3 (Homo sapiens, UniProt O95758)
T1 construct: endogenous full-length protein in human hepatoma (Huh7) cells / cell lysates
Assay: CETSA (cell lysate, immunoblot) and DARTS (pronase)
Format: biochemical
Details: endogenous PTBP3 in Huh7 cells / lysates; stabilisation, authors call it potential direct binding

T1 sequence (O95758 whole entry): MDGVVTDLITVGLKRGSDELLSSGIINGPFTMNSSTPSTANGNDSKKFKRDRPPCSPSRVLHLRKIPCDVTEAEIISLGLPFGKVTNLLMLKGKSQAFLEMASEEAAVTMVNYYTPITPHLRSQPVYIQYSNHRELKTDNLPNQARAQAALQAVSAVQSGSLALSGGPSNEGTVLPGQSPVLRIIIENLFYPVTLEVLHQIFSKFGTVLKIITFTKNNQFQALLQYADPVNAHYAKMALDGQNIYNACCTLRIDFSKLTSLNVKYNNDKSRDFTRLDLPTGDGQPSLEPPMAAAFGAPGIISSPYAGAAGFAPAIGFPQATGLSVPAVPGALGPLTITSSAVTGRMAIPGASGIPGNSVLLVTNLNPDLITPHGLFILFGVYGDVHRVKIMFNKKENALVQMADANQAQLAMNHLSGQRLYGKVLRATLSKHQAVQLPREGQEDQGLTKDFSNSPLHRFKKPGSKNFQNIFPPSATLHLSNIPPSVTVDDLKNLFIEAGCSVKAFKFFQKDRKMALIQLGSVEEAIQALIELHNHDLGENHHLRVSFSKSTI

O=C(O)[C@H]1O[C@H](OP(=O)(O)OP(=O)(O)OC[C@H]2O[C@@H](n3ccc(=O)[nH]c3=O)[C@H](O)[C@@H]2O)[C@H](O)[C@@H](O)[C@@H]1O [UDP-GlcUA]
CETSA (cell lysate, immunoblot) and DARTS (pronase): PTBP3 protein stability is enhanced upon UDP‐GlcUA treatment, suggesting a potential direct binding
